Experimental data taken from patent US6326465A, “Immunomodulatory polypeptides derived from the invariant chain of MHC class II” (The Johns Hopkins University, priority 1998, dated 2001).

Assays:
target cells = assay type: cell-based, rat
tumor cells = assay: Cytokine modulation of CsA-induced SGVHD in the rat model; assay type: in vivo; conditions: for cure of animals: animals given 5×10^3 tumor cells; for enhancement of the antitumor effect of SGVHD: rat model
[1] = system: Lewis syngeneic PHA blasts; assay: Lysis of PHA lymphoblast target cells by syngeneic GVHD effector T cells; assay type: cell-based, rat; conditions: target cells loaded with 10 uM; versus diluent treated target cells
Protocol: FIG. 1. Graph showing comparison of percent specific lysis conferred by truncated variants of CLIP. Lewis syngeneic PHA blasts were force-loaded with the truncated variants of CLIP (10 μmol/L, 1 hr, 4° C.) prior to assay. Effector T cells (nylon wool nonadherent) were derived from animals with syngeneic GVHD that were clonally expanded in thymectomized secondary Lewis recipients.
Truncated peptides from the rat MHC Class II invariant chain V0 : (sequence aa 82-103 […] (SEQ ID NO:1)), V1: aa 90-104 (SEQ ID NO:2), V2: 86-100 (SEQ ID NO:3), V3: 90-100(SEQ ID NO:4) were synthesized by Quality Controlled Biochemicals Co. (Hopkinton, Ma.) and purified by HPLC.^15,23 The peptides (>92% purity) were dissolved in RPMI 1640 prior to use. Force loading of CLIP was accomplished by incubating the cells in 10 μM of the peptide for 1 hr. at 4° C. […] Antibody was prepared to the CLIP peptide by Quality Controlled Biochemicals Co. The peptides were conjugated to keyhole limpet hemocyanin (KLH). Rabbits were immunized with the peptide-KLH conjugate. The antibody was affinity purified using peptide conjugated sepharose matrix columns.
We first evaluated whether CLIP in rats is recognized by the autoreactive T cells associated with CsA-induced syngeneic GVHD by comparing the lysis of target cells after various pretreatment conditions.
Target cells were loaded with the CLIP variants (10 uM) and evaluated for […]

CRL 1662 myeloma cells = assay: Antitumor activity after adoptive transfer of syngeneic GVHD effector T cells; assay type: in vivo, rat; conditions: with syngeneic GVHD effector cells; […]10^4 CRL 1662 cells; cytokines for ten days
Protocol: Nylon wool nonadherent spleen cells (50×10^6) from Lou M animals with syngeneic GVHD were adoptively transferred into secondary Lou M recipients (irradiated, bone marrow reconstituted) challenged with 2.5×10^4 CRL 1662 myeloma cells. […] Survival was assessed and log tumor cell kill was estimated from dose response studies (see Table 6).

| Substance | cure of animals (tumor cells) | enhancement of the antitumor effect of SGVHD (tumor cells) | also measured |
| --- | --- | --- | --- |
| staphylococcal enterotoxin β [SEB] | – | – | ability of effector T lymphocytes to recognize and lyse the target cells (target cells): completely inhibited; preventing recognition and lysis (target cells): ineffective |
| interferon-α | about half | 1-2 logs | – |
| KPCSP(R) | – | – | Enhancement of Target Cell Recognition [1]: +++ (enhancement representing at least a >25% increase in specific killing) |
| γ-interferon: cytokine, 50,000 U/d | about half | 1-2 logs | Estimated Log Tumor Cell Kill (CRL 1662 myeloma cells): 2.5-3.0 |
